This test concerns the target Cathepsin-D protease (Homo sapiens, UniProt P07339). Put plainly: Protease inhibition assay in picowells with compound photo-released from beads. Format: biochemical. Conditions: compound released from 10 μm TentaGel bead by UV (365 nm, 77 J/cm^2) to approximately 13 μM; incubated 30 min, 37° C.; λex=480 nm, λem=525 nm.

Cathepsin-D protease, sequence (P07339 65-412): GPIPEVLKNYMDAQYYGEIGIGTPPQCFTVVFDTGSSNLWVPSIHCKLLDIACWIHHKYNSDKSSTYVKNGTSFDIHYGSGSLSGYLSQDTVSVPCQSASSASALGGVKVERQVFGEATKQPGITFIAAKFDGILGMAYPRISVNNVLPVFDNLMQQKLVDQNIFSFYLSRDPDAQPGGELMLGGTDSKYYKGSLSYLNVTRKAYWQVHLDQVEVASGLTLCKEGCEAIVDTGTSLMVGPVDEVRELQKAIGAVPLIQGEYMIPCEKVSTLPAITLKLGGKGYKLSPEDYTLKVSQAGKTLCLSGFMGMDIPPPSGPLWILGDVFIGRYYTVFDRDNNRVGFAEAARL
From the text: Reagents were placed into wells at 4 degrees C. Ultraviolet light at 365 nm was used to cleave the fluorophore from the bead, thereby releasing the fluorophore and separating it from the quencher. […] This setup with bead-bound pepstatin-A and the aspartyl protease can serve as a positive control.
This bead population was introduced into picowells, then buffer exchanged into a protease inhibition assay, including Cathepsin-D protease and Peptide Q-Fluor substrate (λex=480 nm, λem=525 nm). Wells were encapsulated by air, and entire slide exposed to UV (365 nm, 77 J/cm^2), cleaving the photolabile linker, releasing the compound to reach approximately 13 μM. The flowcell was incubated (30 min, 37° C.).
Greater fluorescence means that the enzyme is more catalytically active. […] Images were captured following UV release and Cathepsin-D assay incubation (λex=480 nm, λem=525 nm). Wells containing positive control beads could be identified spectrally by Cy5 fluorophore (λex=645 nm, λem=665 nm, orange false color).

In the case of `CC(C)[C@H](NC(=O)OCC1c2ccccc2-c2ccccc21)C(=O)O` [negative control beads, Fmoc-Valine], the “Cathepsin-D inhibition (fluorescence of Peptide Q-Fluor substrate in well)” value is recorded as “no Cathepsin-D inhibition”.

For the origin of these results see patent US12577702B2, “Oligonucleotide encoded chemical libraries, related systems, devices, and methods for detecting, analyzing, quantifying, and testing biologics/genetics” (Plexium, Inc., priority 2020, dated 2026).
